Measurements published in paper PMC9926489, “Chemical Optimization of Selective Pseudomonas aeruginosa LasB Elastase Inhibitors and Their Impact on LasB-Mediated Activation of IL-1β in Cellular and Animal Infection Models” (ACS Infectious Diseases, 2023).

How the values were obtained:
[1] = Cytotoxicity screening (MTS), HepG2; format: cell-based; conditions: human, HepG2 cells
Protocol: Bronchial smooth muscle cells (BSMC, Lonza CC-2576), small airway epithelial cells (SAEC, Lonza CC-2547), or HepG2 cells (ATCC HB-8065) were seeded in 96-well plates at a density of 25,000 per well. Culture of these cells throughout the protocol utilized incubation at 37 °C, 5% CO2 in a humidified atmosphere, with BSMC and SAEC cells cultured in cell-specific media (Lonza) and HepG2 cells cultured in RPMI 1640 medium containing Glutamax (Gibco) and 10% fetal bovine serum. Plates containing BSMC cells were collagen coated to assist with cell adhesion. Following an overnight settling period, media was replaced with fresh media, with, or without, compound. Compound concentrations tested were 1, 3, 10, 30, and 100 μM, in duplicate. The cells were incubated with compound for 24 h. Control (1% DMSO) and positive standards terfenadine- and salmeterol-treated groups were included for both cell lines. […] The reaction was stopped with 12.5 μL of 10% SDS, plates briefly shaken, and absorbance (490 nm) read using a Spectramax M5e plate reader (Molecular Devices). Percentages of viable cells were calculated as: (test sample Abs 490 nM-mean blank Abs 490 nm)/(mean control Abs 490 nM-mean blank Abs 490 nm) × 100.

LasB S460T = biological target: T1, LasB S460T (Pseudomonas aeruginosa, UniProt P14756, S460T); test: LasB variant inhibition, culture supernatant: S460T; format: biochemical, P. aeruginosa
T1 construct: Most changes were identified in the mature peptide, however some occurred in the propeptide domain; endogenous in cells; host or cells: P. aeruginosa clinical CF isolate, culture supernatant
Excerpt: Compounds 12 and 16 were discovered as a result of optimizing potency against the LasB protein expressed from the wild-type (WT) reference strain P. aeruginosa PAO1. To understand the relative prevalence of the WT LasB protein versus other variants in clinical respiratory P. aeruginosa strains, the full-length lasB gene was amplified by PCR from 255 clinical isolates (obtained from CF sputum samples). […] Most changes were identified in the mature peptide, however some occurred in the propeptide domain, which could affect LasB processing (marked in italics in Table 4).
LasB inhibition assays were performed using purified LasB enzyme (1 ng/well) for compound screening or using culture supernatants (prepared as described in the ECR assay) for testing LasB variants. Hydrolysis of the fluorogenic peptide substrate 2-aminobenzoyl-Ala-Gly-Leu-Ala-4-nitrobenzylamide (Abz-AGLA-Nba; Peptide International) in 50 mM Tris-HCl (pH 7.4), supplemented with 2.5 mM CaCl2 was followed using an Envision microplate reader (PerkinElmer) at 315 nm excitation and 430 nm emission. […] IC50 values were determined from Hill plots using Dotmatics Studies ELN software. For the mechanism of inhibition studies, hydrolysis rates were measured in the presence of variable concentrations of substrate and inhibitor, and the inhibition constant (Ki) was determined using Dixon plot analysis.[31]

purified LasB = biological target: T2, purified LasB (Pseudomonas aeruginosa, UniProt P14756); test: Inhibition of LasB-mediated proteolysis of human serum IgG (SDS-PAGE); format: biochemical, P. aeruginosa; conditions: for inhibition of generation of 37 kDa IgG degradation product by LasB: at 10 μM inhibitor
T2 construct: The mature LasB protein is a 33 kDa metalloprotease, which is secreted from P. aeruginosa; host or cells: P. aeruginosa PAO1 (native secretion, culture supernatant)
Protocol: To confirm if compounds 12 and 16 were able to inhibit this activity, human serum IgG was incubated with purified LasB in the presence of varying concentrations of inhibitors and the products analyzed by SDS-PAGE.
This protocol was adapted from Cathcart et al.[25] Briefly, 10 μg of IgG from human serum (Sigma) were incubated with 100 ng purified LasB in assay buffer (50 mM Tris-HCl pH 7.4, 2.5 mM CaCl2) for 4 h at 37 °C, with or without variable concentrations of inhibitor. Samples were then denatured and analyzed by 4–15% gradient SDS polyacrylamide gel electrophoresis (SDS-PAGE) and the gel stained using Coomassie blue. The IgG subunits are visualized as two bands at 28 kDa (light chain) and 54 kDa (heavy chain). Proteolysis by LasB results in the generation of a fragment of the heavy chain detected of approximately 37 kDa. Bands were quantified using ImageJ software, and IC50 values were determined using Prism software (GraphPad).

T2 sequence (P14756 198-498): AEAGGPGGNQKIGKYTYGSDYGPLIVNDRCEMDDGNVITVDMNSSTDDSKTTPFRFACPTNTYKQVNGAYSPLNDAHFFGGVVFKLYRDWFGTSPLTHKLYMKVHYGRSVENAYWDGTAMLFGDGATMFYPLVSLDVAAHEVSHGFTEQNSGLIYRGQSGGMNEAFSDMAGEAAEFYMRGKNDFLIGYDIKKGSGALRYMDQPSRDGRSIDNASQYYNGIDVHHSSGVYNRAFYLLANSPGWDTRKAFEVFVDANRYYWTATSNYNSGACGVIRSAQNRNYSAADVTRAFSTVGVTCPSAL
T1 sequence (P14756 198-498 S460T): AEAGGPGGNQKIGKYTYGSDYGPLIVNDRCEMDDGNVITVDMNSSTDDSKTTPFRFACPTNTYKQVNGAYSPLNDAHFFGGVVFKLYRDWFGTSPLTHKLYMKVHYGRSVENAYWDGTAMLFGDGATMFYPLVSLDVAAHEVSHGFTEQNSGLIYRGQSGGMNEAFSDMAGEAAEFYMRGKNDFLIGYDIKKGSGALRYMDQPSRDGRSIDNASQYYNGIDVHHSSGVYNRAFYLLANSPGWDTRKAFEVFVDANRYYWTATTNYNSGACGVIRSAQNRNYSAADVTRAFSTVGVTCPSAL

Row | Compound | IC50 at 24 h [1] | IC50 (LasB S460T) | IC50 (purified LasB) | inhibition of generation of 37 kDa IgG degradation product by LasB (purified LasB)
1 | COc1cc2sc(CNC(=O)C3(CC(=O)O)Cc4ccccc4C3)nc2cc1OCCC[N+](C)(C)C [Compound 12] | > 100 µM | 0.211 µM | 2.59 µM | complete inhibition
2 | COc1cc2sc(CNC(=O)C3(CC(=O)O)Cc4cc(F)c(F)cc4C3)nc2cc1OCCC[N+](C)(CCO)CCO [Compound 16] | > 100 µM | 0.201 µM | 1.29 µM | complete inhibition
